Measured values from PMC12373729 (Scientific Reports, 2025).
“Also recorded” adds a separate entry of the source. Structures can show the parent of a compound that is named as a salt. Where two headings read alike, the source gives them in different places.

Tests used:
[1] = test system: SARS-CoV-2; assay: microbe, parasite or virus in culture; assay type: cell-based
[2] = in vitro; details: African green monkey
[3] = test system: Vero E6 cells
[4] = test system: Vero E6 cells; assay: Cell viability / 50% cytotoxic concentration, EZ-Cytox kit; details: Vero E6 cells, 1 nM–100 µM, 2 days of treatment; Table S2
[5] = as above; details: African green monkey, CC50, Vero E6 cells
[6] = all patients, clinical settings; cited from earlier work
[7] = test system: YFV protease; details: competitive inhibition; ref Cardoso et al. 43, 44; cited from earlier work
[8] = test system: CHIKV nsP2 protease; set-up: method as in Cardoso et al. 43, 44; details: ref Cardoso et al. 43, 44; cited from earlier work
[9] = test system: ZIKV protease; set-up: method as in Cardoso et al. 43, 44; details: competitive inhibition; ref Cardoso et al. 43, 44; cited from earlier work
[10] = test system: SARS-CoV-2; details: cited from earlier work
[11] = test system: SARS-CoV-2 papain-like protease; details: cited from earlier work
[12] = Severe acute respiratory syndrome coronavirus 2, Vero C1008, Vero E6 cells, MOI 0.01, compound together with virus for 2 h, titers at 48 h, Table S2, '-' = no significant antiviral effect, read-out: IC50
[13] = Vero E6 cells, MOI 0.01, compound together with virus for 2 h, titers at 48 h, Table S2, '-' = no significant antiviral effect, read-out: IC50
[14] = 1 nM–100 µM, 2 days of treatment, Table S2
[15] = Severe acute respiratory syndrome coronavirus 2, Vero C1008, Vero E6 cells, MOI 0.01, treatment during inoculation 2 h, then drug-free 48 h, Fig. 1, read-out: IC50
[16] = Severe acute respiratory syndrome coronavirus 2, Vero C1008, compound added 2 h before inoculation, washed, then infected 2 h, titers 48 h post-infection, '-' = no measurable antiviral effect, read-out: IC50 Pre-infection
[17] = Severe acute respiratory syndrome coronavirus 2, Vero C1008, infected 2 h, washed, then medium containing compound, titers 48 h post-infection, '-' = no measurable antiviral effect, read-out: IC50 Post-infection
[18] = Vero E6 cells, MOI 0.01, treatment during inoculation 2 h, then drug-free 48 h, Fig. 1, read-out: IC50

## N[C@@H](Cc1c[nH]c2ccc(O)cc12)C(=O)O [5-Hydroxy-L-tryptophan (4PQ), 5-hydroxy-L-tryptophan]
[1]; [12]
  IC50: > 100 µM
[2]
  CC50 at 2 days: > 100 µM

## COc1cc2nc(N3CCNCC3)nc(N)c2cc1OC [6,7-dimethoxy-2-(1-piperazinyl)-4-quinazolinamine]
[1]; [12]
  IC50: > 100 µM
[2]
  CC50 at 2 days: > 100 µM

## Nc1ncnc2nc[nH]c12 [Adenine (ADE), adenine]
[1]; [12]
  IC50: > 100 µM
[2]
  CC50: > 100 µM

## C/C1=C2/N[C@H]([C@H](CC(N)=O)[C@@]2(C)CCC(=O)NC[C@@H](C)OP(=O)(O)O[C@H]2[C@@H](O)[C@@H](n3cnc4cc(C)c(C)cc43)O[C@@H]2CO)[C@]2(C)N=C(/C(C)=C3N=C(/C=C4N=C1[C@@H](CCC(N)=O)C\4(C)C)[C@@H](CCC(N)=O)[C@]\3(C)CC(N)=O)[C@@H](CCC(N)=O)[C@]2(C)CC(N)=O.C[C@H]1O[C@@H](n2cnc3c(N)ncnc32)[C@H](O)[C@@H]1O.[Co] [Coenzyme B12 (B1Z), coenzyme B12]
[1]; [13]
  IC50: > 100 µM
[3]
  CC50: > 100 µM

## C/C1=C2/[N-][C@H]([C@H](CC(N)=O)[C@@]2(C)CCC(=O)NC[C@@H](C)OP(=O)([O-])O[C@H]2[C@@H](O)[C@@H](n3cnc4cc(C)c(C)cc43)O[C@@H]2CO)[C@]2(C)N=C(/C(C)=C3N=C(/C=C4N=C1[C@@H](CCC(N)=O)C\4(C)C)[C@@H](CCC(N)=O)[C@]\3(C)CC(N)=O)[C@@H](CCC(N)=O)[C@]2(C)CC(N)=O.[Co+3].[OH-] [Hydroxocobalamin (HPA), hydroxocobalamin]
[1]; [13]
  IC50: > 100 µM
[4]
  CC50: > 100 µM

## O=c1[nH]cnc2nc[nH]c12 [Hypoxanthine (HPA), hypoxanthine]
[1]; [12]
  IC50: > 100 µM
[5]; [14]
  CC50 at 2 days: > 100 µM

## NC[C@@H]1O[C@H](O[C@H]2[C@@H](O)[C@H](O[C@@H]3[C@@H](O)[C@H](N)C[C@H](N)[C@H]3O[C@H]3O[C@H](CN)[C@@H](O)[C@H](O)[C@H]3N)O[C@@H]2CO)[C@H](N)[C@@H](O)[C@@H]1O [Neomycin solution (NMY), neomycin solution]
[1]; [13]
  IC50: > 100 µM
[4]
  CC50: > 100 µM

## CCC(CC)COC(=O)[C@H](C)N[P@](=O)(OC[C@H]1O[C@@](C#N)(c2ccc3c(N)ncnn23)[C@H](O)[C@@H]1O)Oc1ccccc1 [Remdesivir]
[1]; [15]
  IC50: 25.8 µM
[1]; [16]
  IC50: < 6.11 µM
[1]; [17]
  IC50: 3.47 µM
[1]; [18]
  IC50: 25.8 µM
[5]; 0–100 μM, Table S3
  CC50 at 2 days: 98.9 µM
[5]; [14]
  CC50 at 2 days: > 100 µM
[6]
  patients with elevated liver enzymes: 35%

## Nc1ncnc2c1ncn2[C@@H]1O[C@H](CSCC[C@H](N)C(=O)O)[C@@H](O)[C@H]1O [S-Adenosyl-L-homocysteine (SAH), S-adenosyl-l-homocysteine]
[1]; [13]
  IC50: > 100 µM
[4]
  CC50: > 100 µM

## Nc1ncnc2c1ncn2[C@@H]1O[C@@H]2COP(=O)(O)O[C@H]3[C@@H](O)[C@H](n4cnc5c(N)ncnc54)O[C@@H]3COP(=O)(O)O[C@H]2[C@H]1O [c-di-AMP sodium salt (2BA), c-di-AMP sodium salt]
[1]; [13]
  IC50: > 100 µM
[3]
  CC50: > 100 µM

## Nc1nc2c(ncn2[C@@H]2O[C@@H]3COP(=O)(O)O[C@H]4[C@@H](O)[C@H](n5cnc6c(N)ncnc65)O[C@@H]4COP(=O)(O)O[C@H]3[C@H]2O)c(=O)[nH]1 [cGAMP sodium salt]
[1]; [13]
  IC50: > 100 µM
[4]
  CC50: > 100 µM

## Cc1cc2nc3c(=O)[nH]c(=O)nc-3n(C[C@H](O)[C@H](O)[C@H](O)COP(=O)(O)O)c2cc1C [riboflavin 5′-monophosphate sodium salt hydrate]
[1]; [12]
  IC50: 59.4 µM
[1]; [16]
  IC50: > 100 µM
[1]; Severe acute respiratory syndrome coronavirus 2, Vero C1008, compound and virus simultaneously for 2 h, washed, titers 48 h post-infection, read-out: IC50 During infection
  IC50: 59.4 µM
[1]; [17]
  IC50: > 100 µM
[3]; African green monkey, 2 days
  CC50: > 100 µM
[2]
  CC50 at 2 days: 98.9 µM

## Cc1cc2nc3c(=O)[nH]c(=O)nc-3n(C[C@H](O)[C@H](O)[C@H](O)CO)c2cc1C [riboflavin]
[7]
  IC50, YFV protease: medium micromolar range
[1]; [15]
  IC50: 59.4 µM
[1]; Vero E6 cells, 2 h post-infection, in words
  antiviral effect, treatment post-infection: no measurable antiviral effects; also recorded: no effect
[1]; Vero E6 cells, 2 h prior to infection, in words
  antiviral effect, treatment prior to infection: no measurable antiviral effects; also recorded: no effect
[1]; [18]
  IC50: 59.4 µM
[1]; Vero E6 cells, in words
  antiviral effect, treatment during viral inoculation: significant inhibition; also recorded: significantly reduced viral replication
[1]; drug-containing media for 48 h, Supplementary Fig. S1, in words
  effect on viral replication when added to the culture medium after viral inoculation: additional inhibitory effects on viral replication were observed
[8]
  activity against CHIKV nsP2 protease: potent activity
[5]; text and Fig. 1 (Fig. 1: 2 h treatment, then drug-free media 48 h)
  CC50 at 2 days: > 100 µM
[9]
  IC50, ZIKV protease: medium micromolar range
[10]
  effect on viral replication in cellular models: fails to block viral replication
[11]
  concentration inhibiting SARS-CoV-2 papain-like protease in vitro: > 50 µM
[11]; high concentrations, ref 2 (supplement)
  concentration inhibiting viral papain-like protease (PLpro): > 50 µM
